In patent US20250017914A1, “6-AZA-QUINOLINE DERIVATIVES AND RELATED USES” (Black Diamond Therapeutics, Inc., priority 2021, published 2025):

Molecular target: T1, BaF3 BRAF-KIAA1549 fusion cells (Homo sapiens, UniProt P15056)
T1 construct: The BRAF-KIAA1549 fusion mutant was subcloned into pMXs-IRES-Blasticidin (RTV-016, Cell Biolabs, San Diego, CA); No tag given; Q9HCM3 (UPF0606 protein KIAA1549)
Assay: BaF3 BRAF-KIAA1549 fusion cell proliferation assay (CellTiterGlo, 96 hours)
Assay type: cell-based
Procedure: Retroviral Production: The BRAF-KIAA1549 fusion mutant was subcloned into pMXs-IRES-Blasticidin (RTV-016, Cell Biolabs, San Diego, CA). Retrovirus was produced by transfection of HEK 293T cells with the retroviral BRAF mutant expression vector pMXs-IRES-Blasticidin (RTV-016, Cell Biolabs), pCMV-Gag-Pol vector and pCMV-VSV-G-Envelope vector. Briefly, HEK 293T cells were plated in Poly-D-lysine coated 6-well plate (2.5×10^5 cells per well) and incubated overnight. The next day, retroviral plasmids (1 μg of BRAF-KIAA fusion mutant, 0.32 μg of pCMV-Gag-Pol and 0.165 μg pCMV-VSV-G) were mixed in 300 μL of Optimem (31985, Life Technologies). The mixture was incubated at room temperature for 5 minutes and then added to Optimem containing transfection reagent Lipofectamine (11668, Invitrogen) and incubated for 20 minutes. The mixture was then added dropwise to HEK 293T cells. The next day the medium was replaced with fresh culture medium and retrovirus was harvested at 24 hours.
Generation of BRAF-KIAA1549 fusion stable cell line: BaF3 cells were plated in V-bottom 96 well plate (COSTAR #3894) in 80 μL of RPMI/10% FBS and 0.01 ng/mL mouse IL-3, supplemented with 8 μg/mL polybrene (4×10^4 cells/well). Cells were transduced with 20 μL of BRAF-KIAA1549 fusion viral supernatant by centrifuging for 30 minutes at 1000 rpm. Cells were placed in a 37° C. incubator overnight. Next day 100 μL of RPMI/10% FBS and 0.01 ng/mL mouse IL-3 was added. After 24 hours, 100 μL of cells were transferred to a 24 well plate containing 900 μL of RPM/10% FBS and 15 μg/mL Blasticidin. Contents of the 24 well plate were sampled for cell viability via CellTiterGlo (Promega) over a 2-week period.
Assay for cell proliferation: BaF3 BRAF-KIAA1549 fusion cells were resuspended at 1.5×10^5 c/mL in RPMI containing 10% Heat Inactivated FBS, 1% L-glutamine and dispensed in duplicate (7×10^4 c/well) into 384 well plates. To determine the effect of compound on cell proliferation, BaF3 BRAF-KIAA1549 fusion cells were incubated for 96 hours in the presence of vehicle control (DMSO) or compound at varying concentrations. Inhibition of cell growth was determined by luminescent quantification (Envision by Perkin Elmer) of intracellular ATP content using CellTiterGlo (Promega), according to the protocol provided by the manufacturer. To determine the IC50 values, the vehicle-treated cells were normalized as viable cells and analyzed using the CDD Vault, Collaborative Drug Discovery, Burlingame, CA (the Levenberg-Marquardt algorithm; Levenberg, K., […]; Marquardt, D., 1963).
Tables A1 and A2 assign each compound a code for potency in the BaF3 BRAF-KIAA1549 fusion cell proliferation assay: A, B, C, or D. According to the code, A represents an IC50 value <20 nM; B represents an IC50 value ≥20 nM and <100 nM; C represents an IC50 value ≥100 nM and <500 nM; and D represents an IC50 value ≥500 nM.

T1 sequence (P15056 whole entry, change not shown, the tested form may be a part): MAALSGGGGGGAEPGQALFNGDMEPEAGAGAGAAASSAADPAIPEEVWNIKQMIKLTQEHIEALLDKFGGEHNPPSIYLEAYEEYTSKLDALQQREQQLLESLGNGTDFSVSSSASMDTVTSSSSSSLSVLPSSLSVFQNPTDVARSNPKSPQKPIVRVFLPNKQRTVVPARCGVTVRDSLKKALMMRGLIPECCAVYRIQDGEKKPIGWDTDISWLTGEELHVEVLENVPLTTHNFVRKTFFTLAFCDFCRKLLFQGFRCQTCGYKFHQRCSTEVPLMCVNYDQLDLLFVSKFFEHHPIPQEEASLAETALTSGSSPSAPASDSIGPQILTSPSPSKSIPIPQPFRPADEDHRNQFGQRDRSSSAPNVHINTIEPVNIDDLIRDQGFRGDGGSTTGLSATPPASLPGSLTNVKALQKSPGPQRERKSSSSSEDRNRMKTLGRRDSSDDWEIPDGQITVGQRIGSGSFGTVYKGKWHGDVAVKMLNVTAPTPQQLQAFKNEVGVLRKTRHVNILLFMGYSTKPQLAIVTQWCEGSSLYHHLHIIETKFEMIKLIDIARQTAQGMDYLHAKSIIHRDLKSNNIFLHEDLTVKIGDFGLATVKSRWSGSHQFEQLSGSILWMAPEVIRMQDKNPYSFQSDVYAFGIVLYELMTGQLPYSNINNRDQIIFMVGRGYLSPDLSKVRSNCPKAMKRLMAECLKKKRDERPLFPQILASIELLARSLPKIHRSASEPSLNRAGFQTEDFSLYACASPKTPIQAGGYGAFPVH

| Structure (SMILES) | GI50 (Table A2) [nM] | GI50 (Table A1) [nM] |
| --- | --- | --- |
| CNc1cc2ncc(-c3cc(NC(=O)c4n[nH]c5c4CN(C)CC5)cnc3C)cc2cn1 [Compound 244, 5-methyl-N-(6-methyl-5-(7-(methylamino)-1,6-naphthyridin-3-yl)pyridin-3-yl)-4,5,6,7-tetrahydro-1H-pyrazolo[4,3-c]pyridine-3-carboxamide] | ≥ 500 | – |
| CNc1cc2ncc(-c3cc(NC(=O)c4cccc5c4CCCC5O)cnc3C)cc2cn1 (stereo not drawn) [Compound 199, 5-hydroxy-N-(6-methyl-5-(7-(methylamino)-1,6-naphthyridin-3-yl)pyridin-3-yl)-5,6,7,8-tetrahydronaphthalene-1-carboxamide] | ≥ 500 | – |
| CNc1cc2ncc(-c3cc(NC(=O)c4cnn(CC(F)(F)F)c4C)cnc3C)cc2cn1 [Compound 240, 5-methyl-N-(6-methyl-5-(7-(methylamino)-1,6-naphthyridin-3-yl)pyridin-3-yl)-1-(2,2,2-trifluoroethyl)-1H-pyrazole-4-carboxamide] | ≥ 500 | – |
| CNc1cc2ncc(-c3cc(NC(=O)c4nccc5c4OCCC5O)cnc3C)cc2cn1 (stereo not drawn) [Compound 211, 4-hydroxy-N-(6-methyl-5-(7-(methylamino)-1,6-naphthyridin-3-yl)pyridin-3-yl)-3,4-dihydro-2H-pyrano[2,3-c]pyridine-8-carboxamide] | ≥ 500 | – |
| CNc1cc2ncc(-c3cc(NC(=O)c4cc(C(C)(C)C#N)ccn4)cc(F)c3Cl)cc2cn1 [Compound 44, N-(4-chloro-3-fluoro-5-(7-(methylamino)-1,6-naphthyridin-3-yl)phenyl)-4-(2-cyanopropan-2-yl)picolinamide] | – | 20 to 100 |
| CNc1cc2ncc(-c3cc(NC(=O)c4cnc5n4CCC(C)C5)ccc3C)cc2cn1 (stereo not drawn) [Compound 195, 7-methyl-N-(4-methyl-3-(7-(methylamino)-1,6-naphthyridin-3-yl)phenyl)-5,6,7,8-tetrahydroimidazo[1,2-a]pyridine-3-carboxamide] | ≥ 500 | – |
| CCNc1cc2ncc(-c3cc(NC(=O)c4cc(C(C)(C)C#N)ccn4)cnc3C)cc2cn1 [Compound 175, 4-(2-cyanopropan-2-yl)-N-(5-(7-(ethylamino)-1,6-naphthyridin-3-yl)-6-methylpyridin-3-yl)picolinamide] | – | 20 to 100 |
| CNc1cc2ncc(-c3cc(NC(=O)c4cccc(N(C)C)c4)cnc3C)cc2cn1 [Compound 19, 3-(Dimethylamino)-N-(6-methyl-5-(7-(methylamino)-1,6-naphthyridin-3-yl)pyridin-3-yl)benzamide] | – | < 20 |
| Cc1ccc(NC(=O)c2cc(C(F)F)ccn2)cc1-c1cnc2cc(NCCC#N)ncc2c1 [Compound 78, N-(3-(7-((2-cyanoethyl)amino)-1,6-naphthyridin-3-yl)-4-methylphenyl)-4-(difluoromethyl)picolinamide] | – | 20 to 100 |
| CNc1cc2nc(C#N)c(-c3cc(NC(=O)c4ccnc(C(F)(F)F)c4)ccc3C)cc2cn1 [Compound 79, N-(3-(2-cyano-7-(methylamino)-1,6-naphthyridin-3-yl)-4-methylphenyl)-2-(trifluoromethyl)isonicotinamide] | – | < 20 |
| CNc1cc2ncc(-c3cc(NC(=O)[C@@H](C)n4cnc(C(F)(F)F)n4)ccc3C)cc2cn1 (single isomer, unassigned) [Compound 69] | – | 100 to 500 |
| CNc1cc2ncc(-c3cc(NC(=O)c4cc(C(C)(C)C#N)ccn4)ccc3C)cc2cn1 [Compound 14, 4-(2-Cyanopropan-2-yl)-N-(4-methyl-3-(7-(methylamino)-1,6-naphthyridin-3-yl)phenyl)picolinamide] | – | < 20 |
| CNc1ncc2cc(-c3cc(NC(=O)c4ccnc(C(C)(C)C#N)c4)cnc3C)cnc2c1Cl [Compound 270, N-[5-[8-chloro-7-(methylamino)-1,6-naphthyridin-3-yl]-6-methyl-3-pyridyl]-2-(1-cyano-1-methyl-ethyl)pyridine-4-carboxamide] | ≥ 500 | – |
| CNc1cc2ncc(-c3cc(NC(=O)c4ccnc(C(C)(C)F)c4)ccc3C)cc2cn1 [Compound 10, 2-(2-Fluoropropan-2-yl)-N-(4-methyl-3-(7-(methylamino)-1,6-naphthyridin-3-yl)phenyl)isonicotinamide] | – | < 20 |
| CNc1cc2ncc(-c3cc(NC(=O)c4cnc5n4CC(C(F)(F)F)CC5)ccc3C)cc2cn1 (stereo not drawn) [Compound 220, N-(4-methyl-3-(7-(methylamino)-1,6-naphthyridin-3-yl)phenyl)-6-(trifluoromethyl)-5,6,7,8-tetrahydroimidazo[1,2-a]pyridine-3-carboxamide] | 20 to 100 | – |
| CNc1cc2ncc(-c3cc(NC(=O)c4ccnc(C(C)(F)F)c4)ccc3C)cc2cn1 [Compound 9, 2-(1,1-difluoroethyl)-N-(4-methyl-3-(7-(methylamino)-1,6-naphthyridin-3-yl)phenyl)isonicotinamide] | – | < 20 |
| CNc1cc2ncc(-c3cc(NC(=O)c4cc(C(C)(C)C#N)ccn4)cnc3C)cc2cn1 [Compound 30, 4-(2-Cyanopropan-2-yl)-N-(6-methyl-5-(7-(methylamino)-1,6-naphthyridin-3-yl)pyridin-3-yl)picolinamide] | – | 20 to 100 |
| CNc1cc2ncc(-c3cc(NC(=O)c4cncc(C(F)(F)F)c4)cnc3C)cc2cn1 [Compound 21, N-(6-Methyl-5-(7-(methylamino)-1,6-naphthyridin-3-yl)pyridin-3-yl)-5-(trifluoromethyl)nicotinamide] | – | 20 to 100 |
| CNc1cc2ncc(-c3cc(NC(=O)c4cc(C(C)(C)C#N)ccn4)c(F)cc3C)cc2cn1 [Compound 42, 4-(2-Cyanopropan-2-yl)-N-(2-fluoro-4-methyl-5-(7-(methylamino)-1,6-naphthyridin-3-yl)phenyl)picolinamide] | – | 20 to 100 |
| CNc1cc2ncc(-c3cc(NC(=O)c4cccc(N(C)C)c4)ccc3C)cc2cn1 [Compound 4, 3-(Dimethylamino)-N-(4-methyl-3-(7-(methylamino)-1,6-naphthyridin-3-yl)phenyl)benzamide] | – | < 20 |
| CNc1cc2ncc(-c3cc(NC(=O)c4cc(C(NC)C(F)(F)F)ccn4)ccc3C)cc2cn1 (stereo not drawn) [Compound 203, N-(4-methyl-3-(7-(methylamino)-1,6-naphthyridin-3-yl)phenyl)-4-(2,2,2-trifluoro-1-(methylamino)ethyl)picolinamide] | < 20 | – |
| CNc1cc2ncc(-c3cc(NC(=O)c4cc(C(C)(F)F)ccn4)cnc3C)cc2cn1 [Compound 23, 4-(1,1-Difluoroethyl)-N-(6-methyl-5-(7-(methylamino)-1,6-naphthyridin-3-yl)pyridin-3-yl)picolinamide] | – | 20 to 100 |
| CNc1cc2ncc(-c3cc(NC(=O)N(C)c4ccnc(C(F)F)c4)cnc3C)cc2cn1 [Compound 190, 1-(2-(difluoromethyl)pyridin-4-yl)-1-methyl-3-(6-methyl-5-(7-(methylamino)-1,6-naphthyridin-3-yl)pyridin-3-yl)urea] | 100 to 500 | – |
| CNc1cc2ncc(-c3cc(NC(=O)c4ccnc(C(C)(C)C#N)c4)cnc3C)cc2cn1 [Compound 55, 2-(2-Cyanopropan-2-yl)-N-(6-methyl-5-(7-(methylamino)-1,6-naphthyridin-3-yl)pyridin-3-yl)isonicotinamide] | – | < 20 |
| CNc1cc2ncc(-c3cc(NC(=O)c4cc(C(F)(F)F)c(C)cn4)ccc3C)cc2cn1 [Compound 5, 5-Methyl-N-(4-methyl-3-(7-(methylamino)-1,6-naphthyridin-3-yl)phenyl)-4-(trifluoromethyl)picolinamide] | – | 20 to 100 |
| CNc1cc2ncc(-c3cc(NC(=O)c4c[nH]c5ccc(C)cc45)ccc3C)cc2cn1 [Compound 263, 5-methyl-N-(4-methyl-3-(7-(methylamino)-1,6-naphthyridin-3-yl)phenyl)-1H-indole-3-carboxamide] | < 20 | – |
| CNc1cc2ncc(-c3cc(NC(=O)c4ccnc(C5(F)CC5)c4)ccc3C)cc2cn1 [Compound 18, 2-(1-Fluorocyclopropyl)-N-(4-methyl-3-(7-(methylamino)-1,6-naphthyridin-3-yl)phenyl)isonicotinamide] | – | < 20 |
